System: Ba/F3-CDM cells (Ba/F3 transfected with CD8-MerTK)
Assay: In cell MER kinase assay, Ba/F3-CDM cell proliferation without IL-3 (Celltiter-Glo, GI50)
Type: cell-based, murine
Conditions: 48 hours, read-out: Cell growth inhibition (GI50)
Outline: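 Ba/F3 cells expressing CD8-MerTK were grown without IL-3, so that proliferation depends on MerTK. Cells were pre-incubated 24 h, then exposed to compound for 48 h. Viability was read by CellTiter-Glo, with IL-3-supplemented Ba/F3 run in parallel as a nonspecific cytotoxicity control, and GI50 was derived.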

Row | Structure (SMILES) | GI50 [nM]
1 | CN1CCN(Cc2ccc(-c3ccc(CO[C@H]4CCC[C@@H]4NC(=O)c4cc(-c5ccc(CN6CCOCC6)cc5)cnc4N)cc3)cc2)CC1 [Example 379, 2-amino-N-((1S,2S)-2-((4′-((4-methylpiperazin-1-yl)methyl)-[1,1′-biphenyl]-4-yl)methoxy)cyclopentyl)-5-(4-(morpholinomethyl)phenyl)nicotinamide] | < 100
2 | CN1CCN(Cc2ccc(-c3ccc(CO[C@H]4CCC[C@@H]4NC(=O)c4cc(-c5cnn(C6CCOCC6)c5)cnc4N)cc3)cc2)CC1 [Example 380, 2-amino-N-((1S,2S)-2-((4′-((4-methylpiperazin-1-yl)methyl)-[1,1′-biphenyl]-4-yl)methoxy)cyclopentyl)-5-(1-(tetrahydro-2H-pyran-4-yl)-1H-pyrazol-4-vi)nicotinamide] | < 100
3 | CN1CCN(Cc2ccc(-c3ccc(CO[C@H]4CCC[C@@H]4NC(=O)c4cc(-c5ccc(N6CCOCC6)cc5)cnc4N)cc3)cc2)CC1 [Example 381, 2-amino-N-((1S,2S)-2-((4′-((4-methylpiperazin-1-yl)methyl)-[1,1′-biphenyl]-4-yl)methoxy)cyclopentyl)-5-(4-morpholinophenyl)nicotinamide] | < 100
4 | COc1ccc(-c2cnc(N)c(C(=O)N[C@H]3CCC[C@@H]3OCc3ccc(-c4ccc(CN5CCN(C)CC5)cc4)cc3)c2)cc1OC [Example 383, 2-amino-5-(3,4-dimethoxyphenyl)-N-((1S,2S)-2-((4′-((4-methyl-piperazin-1-yl)methyl)-[1,1′-biphenyl]-4-yl)methoxy)cyclopentyl)nicotinamide] | < 100
5 | CN1CCN(Cc2ccc(-c3ccc(CO[C@H]4CCC[C@@H]4NC(=O)c4cc(-c5cc(F)nc(F)c5)cnc4N)cc3)cc2)CC1 [Example 384] | < 100
6 | CN1CCN(Cc2ccc(-c3ccc(CO[C@H]4CCC[C@@H]4NC(=O)c4cc(-c5ccc(F)nc5)cnc4N)cc3)cc2)CC1 [Example 386, 6-amino-6′-fluoro-N-((1S,2S)-2-((4′-((4-methylpiperazin-1-yl)methyl)-[1,1′-biphenyl]-4-yl)methoxy)cyclopentyl)-[3,3′-bipyridine]-5-carboxamide] | < 100
7 | CN1CCN(Cc2ccc(-c3ccc(CO[C@H]4CCC[C@@H]4NC(=O)c4cc(-c5cnn(C(F)(F)C(F)F)c5)cnc4N)cc3)cc2)CC1 [Example 387, 2-amino-N-((1S,2S)-2-((4′-((4-methylpiperazin-1-yl)methyl)-[1,1′-biphenyl]-4-yl)methoxy)cyclopentyl)-5-(1-(1,1,2,2-tetrafluoroethyl)-1H-pyrazol-4-yl)-nicotinamide] | < 100
8 | CCc1cc(CO[C@H]2CNC[C@@H]2NC(=O)c2cc(-c3ccc(C(N)=O)cc3)cnc2N)ccc1C [Example 391, 2-amino-5-(4-carbamoylphenyl)-N-((3S,4S)-4-((3-ethyl-4-methylbenzyl)oxy)pyrrolidin-3-yl)nicotinamide] | > 1000
9 | CCc1cc(CO[C@H]2CNC[C@@H]2NC(=O)c2cc(-c3cccnc3)cnc2N)ccc1C [Example 396, 6-amino-N-((3S,4S)-4-((3-ethyl-4-methylbenzyl)oxy)pyrrolidin-3-yl)-[3,3′-bipyridine]-5-carboxamide] | > 1000
10 | CCc1cc(CO[C@H]2CNC[C@@H]2NC(=O)c2cc(-c3ccc(NS(C)(=O)=O)cc3)cnc2N)ccc1C [Example 401, 2-amino-N-((3S,4S)-4-((3-ethyl-4-methylbenzyl)oxy)pyrrolidin-3-yl)-5-(4-(methylsulfonamido)phenyl)nicotinamide] | > 1000
11 | CCc1cc(CO[C@H]2CNC[C@@H]2NC(=O)c2cc(-c3cnn(C4CCNCC4)c3)cnc2N)ccc1C [Example 412, 2-amino-N-((3S,4S)-4-((3-ethyl-4-methylbenzyl)oxy)pyrrolidin-3-yl)-5-(1-(piperidin-4-yl)-1H-pyrazol-4-yl)nicotinamide] | > 1000
12 | Cc1ccc(CO[C@H]2CNC[C@@H]2NC(=O)c2cc(-c3cnn(C)c3)cnc2N)cc1 [Example 415, 2-amino-5-(1-methyl-1H-pyrazol-4-yl)-N-((3S,4S)-4-((4-methylbenzyl)oxy)pyrrolidin-3-yl)nicotinamide] | > 1000
13 | CCc1cc(CO[C@H]2CNC[C@@H]2NC(=O)c2cc(-c3ccc(C(=O)NC4CCN(C)CC4)cc3)cnc2N)ccc1C [Example 419, 2-amino-N-((3S,4S)-4-((3-ethyl-4-methylbenzyl)oxy)pyrrolidin-3-yl)-5-(4-((1-methylpiperidin-4-yl)carbamoyl)phenyl)nicotinamide] | > 1000
14 | CN1CCN(Cc2ccc(-c3ccc(CO[C@H]4CN(C)C[C@@H]4NC(=O)c4cc(-c5cnn(C)c5)cnc4N)cc3)cc2C(F)(F)F)CC1 [Example 437, 2-amino-5-(1-methyl-1H-pyrazol-4-yl)-N-((3S,4S)-1-methyl-4-((4′-((4-methylpiperazin-1-yl)methyl)-3′-(trifluoromethyl)-[1,1′-biphenyl]-4-yl)-methoxy)pyrrolidin-3-yl)nicotinamide] | < 100
15 | Cn1cc(-c2cnc(N)c(C(=O)N[C@H]3CNC[C@@H]3OCc3ccc(-c4ccc(C(C)(C)N5CCN(CCO)CC5)cc4)cc3)c2)cn1 [Example 440] | > 1000
16 | CC(c1ccc(-c2ccc(CO[C@H]3CNC[C@@H]3NC(=O)c3cc(-c4cnn(C)c4)cnc3N)cc2)cc1)N1CCN(CCO)CC1 (stereo partly drawn) [Example 442, 2-amino-N-((3S,4S)-4-((4′-(1-(4-(2-hydroxyethyl)piperazin-1-yl)ethyl)-[1,1′-biphenyl]-4-yl)methoxy)pyrrolidin-3-yl)-5-(1-methyl-1H-pyrazol-4-yl)nicotinamide] | > 1000
17 | CC(c1ccc(-c2ccc(CO[C@H]3CN(C)C[C@@H]3NC(=O)c3cc(-c4cnn(C)c4)cnc3N)cc2)cc1)N1CCN(CCO)CC1 (stereo partly drawn) [Example 443, 2-amino-N-((3S,4S)-4-((4′-(1-(4-(2-hydroxyethyl)piperazin-1-yl)ethyl)-[1,1′-biphenyl]-4-yl)methoxy)-1-methylpyrrolidin-3-yl)-5-(1-methyl-1H-pyrazol-4-yl)nicotinamide] | < 100
18 | Cn1cc(-c2cnc(N)c(C(=O)N[C@H]3CNC[C@@H]3OCc3ccc(-c4ccc(CN5CCN(CCO)CC5)c(C(F)(F)F)c4)cc3)c2)cn1 [Example 444, 2-amino-N-((3S,4S)-4-((4′-((4-(2-hydroxyethyl)piperazin-1-vi)-methyl)-3′-(trifluoromethyl)-[1,1′-biphenyl]-4-yl)methoxy)pyrrolidin-3-yl)-5-(1-methyl-1H-pyrazol-4-yl)nicotinamide] | > 1000
19 | CN1C[C@H](NC(=O)c2cc(-c3cnn(C)c3)cnc2N)[C@@H](OCc2ccc(-c3ccc(CN4CCN(CCO)CC4)c(C(F)(F)F)c3)cc2)C1 [Example 445, 2-amino-N-((3S,4S)-4-((4′-((4-(2-hydroxyethyl)piperazin-1-vi)-methyl)-3′-(trifluoromethyl)-[1,1′-biphenyl]-4-yl)methoxy)-1-methylpyrrolidin-3-yl)-5-(1-methyl-1H-pyrazol-4-yl)nicotinamide] | < 100
20 | Cn1cc(-c2cnc(N)c(C(=O)N[C@H]3CNC[C@@H]3OCc3ccc(-c4ccc(CN5CCN(CCO)CC5)cc4)cc3)c2)cn1 [Example 446, 2-amino-N-((3S,4S)-4-((4′-((4-(2-hydroxyethyl)piperazin-1-yl)-methyl)-[1,1′-biphenyl]-4-yl)methoxy)pyrrolidin-3-yl)-5-(1-methyl-1H-pyrazol-4-yl)-nicotinamide] | > 1000
21 | CN1C[C@H](NC(=O)c2cc(-c3cnn(C)c3)cnc2N)[C@@H](OCc2ccc(-c3ccc(CN4CCN(CCO)CC4)cc3)cc2)C1 [Example 447, 2-amino-N-((3S,4S)-4-((4′-((4-(2-hydroxyethyl)piperazin-1-yl)-methyl)-[1,1′-biphenyl]-4-yl)methoxy)-1-methylpyrrolidin-3-yl)-5-(1-methyl-1H-pyrazol-4-yl)nicotinamide] | < 100
22 | CN1CCN(Cc2ccc(-c3ccc(CO[C@H]4COC[C@@H]4NC(=O)c4cc(-c5cnn(C)c5)cnc4N)cc3)cc2)CC1 [Example 448, 2-amino-5-(1-methyl-1H-pyrazol-4-yl)-N-((3S,4R)-4-((4′-((4-methylpiperazin-1-yl)methyl)-[1,1′-biphenyl]-4-yl)methoxy)tetrahydrofuran-3-yl)-nicotinamide] | < 100
23 | CN1CCN(Cc2ccc(-c3ccc(CO[C@H]4COC[C@@H]4NC(=O)c4cc(-c5cnn(C)c5)cnc4N)cc3)cc2C(F)(F)F)CC1 [Example 449, 2-amino-5-(1-methyl-1H-pyrazol-4-yl)-N-((3S,4R)-4-((4′-((4-methylpiperazin-1-yl)methyl)-3′-(trifluoromethyl)-[1,1′-biphenyl]-4-yl)methoxy)-tetrahydrofuran-3-yl)nicotinamide] | < 100
24 | CN1CCN(C(C)(C)c2ccc(-c3ccc(CO[C@H]4COC[C@@H]4NC(=O)c4cc(-c5cnn(C)c5)cnc4N)cc3)cc2)CC1 [Example 450, 2-amino-5-(1-methyl-1H-pyrazol-4-yl)-N-((3S,4R)-4-((4′-(2-(4-methylpiperazin-1-yl)propan-2-yl)-[1,1′-biphenyl]-4-yl)methoxy)tetrahydrofuran-3-yl)nicotinamide] | < 100
25 | Cn1cc(-c2cnc(N)c(C(=O)N[C@H]3COC[C@@H]3OCc3ccc(-c4ccc(CN5CCN(CCO)CC5)cc4)cc3)c2)cn1 [Example 451, 2-amino-N-((3S,4R)-4-((4′-((4-(2-hydroxyethyl)piperazin-1-yl)methyl)-[1,1′-biphenyl]-4-yl)methoxy)tetrahydrofuran-3-yl)-5-(1-methyl-1H-pyrazol-4-yl)nicotinamide] | < 100
26 | Cn1cc(-c2cnc(N)c(C(=O)N[C@H]3COC[C@@H]3OCc3ccc(-c4ccc(CN5CCN(CCO)CC5)c(C(F)(F)F)c4)cc3)c2)cn1 [Example 452] | < 100
